PubChem BioAssay AID602151 (Vanderbilt Specialized Chemistry Center, 2011)

Molecular target: Phospholipase D1 (Homo sapiens) (UniProt Q13393)
Assay: cellular phospholipase D1 inhibition IC50 – cell-based, dose response (AID 602151)
Conditions: cellular PLD1 activity assay

Phospholipase D1 (Homo sapiens), sequence (Q13393 whole entry, looked up): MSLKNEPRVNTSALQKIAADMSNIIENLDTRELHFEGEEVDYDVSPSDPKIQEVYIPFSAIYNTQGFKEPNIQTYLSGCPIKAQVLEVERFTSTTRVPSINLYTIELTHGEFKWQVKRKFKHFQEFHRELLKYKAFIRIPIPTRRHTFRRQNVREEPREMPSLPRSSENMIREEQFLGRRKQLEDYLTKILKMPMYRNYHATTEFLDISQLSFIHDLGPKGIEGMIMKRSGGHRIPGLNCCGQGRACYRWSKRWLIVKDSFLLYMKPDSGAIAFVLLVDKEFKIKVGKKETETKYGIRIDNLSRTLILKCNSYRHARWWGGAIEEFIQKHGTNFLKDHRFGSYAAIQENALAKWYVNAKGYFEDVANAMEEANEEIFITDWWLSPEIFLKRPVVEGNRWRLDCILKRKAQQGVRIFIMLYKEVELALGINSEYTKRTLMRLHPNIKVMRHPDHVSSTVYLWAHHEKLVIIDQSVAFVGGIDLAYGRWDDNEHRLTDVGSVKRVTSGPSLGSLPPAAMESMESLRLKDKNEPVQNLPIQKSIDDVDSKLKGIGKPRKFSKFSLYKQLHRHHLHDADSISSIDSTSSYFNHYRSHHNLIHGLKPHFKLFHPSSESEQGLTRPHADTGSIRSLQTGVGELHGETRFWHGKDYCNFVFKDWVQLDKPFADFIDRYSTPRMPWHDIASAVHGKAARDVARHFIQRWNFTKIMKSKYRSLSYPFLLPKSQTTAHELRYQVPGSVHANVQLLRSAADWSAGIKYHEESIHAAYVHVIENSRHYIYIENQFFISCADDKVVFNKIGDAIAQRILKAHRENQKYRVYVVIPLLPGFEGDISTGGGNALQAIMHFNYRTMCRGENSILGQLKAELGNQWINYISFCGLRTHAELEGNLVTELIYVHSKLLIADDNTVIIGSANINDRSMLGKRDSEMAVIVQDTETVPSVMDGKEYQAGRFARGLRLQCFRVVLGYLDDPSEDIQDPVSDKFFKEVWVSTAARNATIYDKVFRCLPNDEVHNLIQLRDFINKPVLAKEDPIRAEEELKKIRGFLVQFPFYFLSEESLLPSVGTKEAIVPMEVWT
Phospholipase D1 (Homo sapiens), sequence (Q13393 whole entry, looked up): as above

Structure (SMILES)	IC50
O=C(NCCN1CCC2(CC1)C(=O)NCN2c1cccc(F)c1)c1cnc2ccccc2c1	2.5 µM
O=C(NCCN1CCC2(CC1)C(=O)NCN2c1ccc(Cl)cc1)c1cnc2ccccc2c1	3.5 µM
O=C(NCCN1CCC2(CC1)C(=O)NCN2c1ccc(F)cc1)c1ccc(F)cc1	14 µM
O=C(NCCN1CCC2(CC1)C(=O)NCN2c1ccc(F)c(F)c1)c1cc2cc(F)ccc2[nH]1	0.39 µM
O=C(NCCN1CCC2(CC1)C(=O)NCN2c1cccc(Cl)c1)c1cnc2ccccc2c1	0.87 µM
O=C(NCCN1CCC2(CC1)C(=O)NCN2c1ccc(F)c(F)c1)c1ccc2ccccc2c1	2.81 µM
O=C(NCCN1CCC2(CC1)C(=O)NCN2c1ccccc1)c1cc2ccccc2s1	0.15 µM
O=C(NCCN1CCC2(CC1)C(=O)NCN2c1ccc(Cl)cc1)c1ccc2ccccc2c1	2.27 µM
O=C(NCCN1CCC2(CC1)C(=O)NCN2c1cccc(Cl)c1)c1ccc(F)cc1	3.47 µM
C[C@@H](CN1CCC2(CC1)C(=O)NCN2c1cccc(F)c1)NC(=O)c1ccc2ccccc2c1	0.01 µM
O=C(NCCN1CCC2(CC1)C(=O)NCN2c1ccc(Cl)cc1)c1ccc(F)cc1	5.59 µM
O=C(NCCN1CCC2(CC1)C(=O)NCN2c1ccc(F)cc1)c1cnc2ccccc2c1	2 µM
COc1cc(C(=O)NCCN2CCC3(CC2)C(=O)NCN3c2ccccc2)ccc1N	5.9 µM
O=C(NCCN1CCC2(CC1)C(=O)NCN2c1ccc(Br)cc1)c1cnc2ccccc2c1	2.7 µM
O=C(NCCN1CCC2(CC1)C(=O)NCN2c1ccccc1)c1cnc2ccccc2c1	1.9 µM
O=C(NCCN1CCC2(CC1)C(=O)NCN2c1ccc(F)c(F)c1)c1cnc2ccccc2c1	2.06 µM
O=C(NCCN1CCC2(CC1)C(=O)NCN2c1ccc(F)cc1)c1cc2cc(F)ccc2[nH]1	0.29 µM
C[C@@H](CN1CCC2(CC1)C(=O)NCN2c1ccccc1)NC(=O)c1ccc(F)c(F)c1	0.15 µM
O=C(NCCN1CCC2(CC1)C(=O)NCN2c1ccc(F)cc1)c1ccc2ccccc2c1	1.7 µM
O=C(NCCN1CCC2(CC1)C(=O)NCN2c1cccc(Cl)c1)c1cc2cc(F)ccc2[nH]1	0.25 µM
O=C(C#Cc1ccccc1)NCCN1CCC2(CC1)C(=O)NCN2c1ccccc1	2.13 µM
O=C(NCCN1CCC2(CC1)C(=O)NCN2c1ccc(Br)cc1)c1ccc(F)cc1	10 µM
O=C(NCCN1CCC2(CC1)C(=O)NCN2c1cccc(Cl)c1)c1ccc2ccccc2c1	1.2 µM
O=C(NCCN1CCC2(CC1)C(=O)NCN2c1ccc(Br)cc1)c1ccc2ccccc2c1	5.9 µM
O=C(NCCN1CCC2(CC1)C(=O)NCN2c1cccc(F)c1)c1cc2cc(F)ccc2[nH]1	0.21 µM
O=C(NCCN1CCC2(CC1)C(=O)NCN2c1ccc(Cl)cc1)c1cc2cc(F)ccc2[nH]1	0.335 µM
O=C(NCCN1CCC2(CC1)C(=O)NCN2c1ccc(Br)cc1)c1cc2cc(F)ccc2[nH]1	2.66 µM
Cc1cccc(C(=O)N[C@@H](C)CN2CCC3(CC2)C(=O)NCN3c2ccccc2)c1	3.4 µM
O=C(NCCN1CCC2(CC1)C(=O)NCN2c1ccc(F)c(F)c1)c1ccc(F)cc1	5.78 µM
